Activity calls are given as the source filed them. The rule behind the calls is not given here.
test system: PC-3; assay: Growth inhibition of human PC-3 cells incubated for 6 to 7 days by MTS assay; assay type: functional; details: time 6-7 day

SMILES	GI50 [µM]
CCN(c1cc(-c2ccc([C@@H]3C[C@H]3NCc3ccccc3)cc2)cc(C(=O)NCc2c(C)cc(C)[nH]c2=O)c1C)C1CCOCC1 (racemic)	9.24
CCN(c1cc(-c2ccc([C@@H]3C[C@H]3NC3CCCCC3)cc2)cc(C(=O)NCc2c(C)cc(C)[nH]c2=O)c1C)C1CCOCC1 (racemic)	12
CCN(c1cc(-c2cccc([C@@H]3C[C@H]3NCC3CCOCC3)c2)cc(C(=O)NCc2c(C)cc(C)[nH]c2=O)c1C)C1CCOCC1 (racemic)	10.2
CCN(c1cc(-c2ccc([C@@H]3C[C@H]3NCc3ccccc3F)cc2)cc(C(=O)NCc2c(C)cc(C)[nH]c2=O)c1C)C1CCOCC1 (racemic)	> 30

Further lines, results first:

GI50 [µM]	SMILES
> 30	CCN(c1cc(-c2ccc([C@@H]3C[C@H]3NCC3CC3)cc2)cc(C(=O)NCc2c(C)cc(C)[nH]c2=O)c1C)C1CCOCC1 (racemic)
7.96	CCN(c1cc(-c2ccc([C@@H]3C[C@H]3NC(=O)C(C)(C)C)cc2)cc(C(=O)NCc2c(C)cc(C)[nH]c2=O)c1C)C1CCOCC1 (racemic)
12.6	CCN(c1cc(-c2ccc([C@@H]3C[C@H]3N(CC(=O)N3CCOCC3)C(=O)OC(C)(C)C)cc2)cc(C(=O)NCc2c(C)cc(C)[nH]c2=O)c1C)C1CCOCC1 (racemic)
23.9	CCN(c1cc(-c2ccc([C@@H]3C[C@H]3N)cc2)cc(C(=O)NCc2c(C)cc(C)[nH]c2=O)c1C)C1CCOCC1 (racemic)

target: T1, Lysine-specific histone demethylase 1A (Homo sapiens, UniProt O60341); assay: Inhibition of LSD1 in human LNCaP cells assessed as upregulation of H3K9me2 expression at 10 uM incubated for 24 hrs by Western blotting analysis; assay type: cell-based; details: not given

inhibition	SMILES
inactive	CCN(c1cc(-c2ccc([C@@H]3C[C@H]3NC(=O)C(C)(C)C)cc2)cc(C(=O)NCc2c(C)cc(C)[nH]c2=O)c1C)C1CCOCC1 (racemic)

test system: LNCaP; assay: Growth inhibition of human LNCaP cells incubated for 6 to 7 days by MTS assay; assay type: functional; details: time 6-7 day

SMILES	GI50 [µM]
CCN(c1cc(-c2ccc([C@@H]3C[C@H]3NCc3ccccc3)cc2)cc(C(=O)NCc2c(C)cc(C)[nH]c2=O)c1C)C1CCOCC1 (racemic)	3.41
CCN(c1cc(-c2ccc([C@@H]3C[C@H]3NC3CCCCC3)cc2)cc(C(=O)NCc2c(C)cc(C)[nH]c2=O)c1C)C1CCOCC1 (racemic)	5.34
CCN(c1cc(-c2cccc([C@@H]3C[C@H]3NCC3CCOCC3)c2)cc(C(=O)NCc2c(C)cc(C)[nH]c2=O)c1C)C1CCOCC1 (racemic)	5.7
CCN(c1cc(-c2ccc([C@@H]3C[C@H]3NCc3ccccc3F)cc2)cc(C(=O)NCc2c(C)cc(C)[nH]c2=O)c1C)C1CCOCC1 (racemic)	5.39

The next lines start with the values.

GI50 [µM]	SMILES
13.8	CCN(c1cc(-c2ccc([C@@H]3C[C@H]3NCC3CC3)cc2)cc(C(=O)NCc2c(C)cc(C)[nH]c2=O)c1C)C1CCOCC1 (racemic)
4.42	CCN(c1cc(-c2ccc([C@@H]3C[C@H]3NC(=O)C(C)(C)C)cc2)cc(C(=O)NCc2c(C)cc(C)[nH]c2=O)c1C)C1CCOCC1 (racemic)
5.11	CCN(c1cc(-c2ccc([C@@H]3C[C@H]3N(CC(=O)N3CCOCC3)C(=O)OC(C)(C)C)cc2)cc(C(=O)NCc2c(C)cc(C)[nH]c2=O)c1C)C1CCOCC1 (racemic)
6.83	CCN(c1cc(-c2ccc([C@@H]3C[C@H]3N)cc2)cc(C(=O)NCc2c(C)cc(C)[nH]c2=O)c1C)C1CCOCC1 (racemic)

test system: CWR22R; assay: Growth inhibition of human 22Rv1 cells incubated for 6 to 7 days by MTS assay; assay type: functional; details: time 6-7 day

SMILES	GI50 [µM]
CCN(c1cc(-c2ccc([C@@H]3C[C@H]3NCC3CC3)cc2)cc(C(=O)NCc2c(C)cc(C)[nH]c2=O)c1C)C1CCOCC1 (racemic)	10.4
CCN(c1cc(-c2ccc([C@@H]3C[C@H]3NC(=O)C(C)(C)C)cc2)cc(C(=O)NCc2c(C)cc(C)[nH]c2=O)c1C)C1CCOCC1 (racemic)	13.3
CCN(c1cc(-c2ccc([C@@H]3C[C@H]3N(CC(=O)N3CCOCC3)C(=O)OC(C)(C)C)cc2)cc(C(=O)NCc2c(C)cc(C)[nH]c2=O)c1C)C1CCOCC1 (racemic)	7.83
CCN(c1cc(-c2ccc([C@@H]3C[C@H]3NCc3ccccc3)cc2)cc(C(=O)NCc2c(C)cc(C)[nH]c2=O)c1C)C1CCOCC1 (racemic)	3.9
CCN(c1cc(-c2ccc([C@@H]3C[C@H]3N)cc2)cc(C(=O)NCc2c(C)cc(C)[nH]c2=O)c1C)C1CCOCC1 (racemic)	16.3
CCN(c1cc(-c2ccc([C@@H]3C[C@H]3NC3CCCCC3)cc2)cc(C(=O)NCc2c(C)cc(C)[nH]c2=O)c1C)C1CCOCC1 (racemic)	4.61
CCN(c1cc(-c2cccc([C@@H]3C[C@H]3NCC3CCOCC3)c2)cc(C(=O)NCc2c(C)cc(C)[nH]c2=O)c1C)C1CCOCC1 (racemic)	4.81
CCN(c1cc(-c2ccc([C@@H]3C[C@H]3NCc3ccccc3F)cc2)cc(C(=O)NCc2c(C)cc(C)[nH]c2=O)c1C)C1CCOCC1 (racemic)	27.4

target: T1, Lysine-specific histone demethylase 1A; assay: Inhibition of recombinant human LSD1 using Histone H3 as fluorometric substrate incubated for 30 mins by HRP based plate reader assay; details: not given

IC50 [µM]	SMILES
> 3	CCN(c1cc(-c2ccc([C@@H]3C[C@H]3N(CC(=O)N3CCOCC3)C(=O)OC(C)(C)C)cc2)cc(C(=O)NCc2c(C)cc(C)[nH]c2=O)c1C)C1CCOCC1 (racemic)

target: T1, Lysine-specific histone demethylase 1A; assay: Inhibition of LSD1 in human 22Rv1 cells assessed as upregulation of H3K9me2 expression at 10 uM incubated for 24 hrs by Western blotting analysis; assay type: cell-based; details: not given

inhibition	SMILES
inactive	CCN(c1cc(-c2ccc([C@@H]3C[C@H]3NC(=O)C(C)(C)C)cc2)cc(C(=O)NCc2c(C)cc(C)[nH]c2=O)c1C)C1CCOCC1 (racemic)

Reference: ChEMBL document CHEMBL5584353, “Design, Synthesis, and Biological Evaluation of Potent EZH2/LSD1 Dual Inhibitors for Prostate Cancer” (J Med Chem, 2024)
